This is an account of results in paper PMC5664514 (Proceedings of the National Academy of Sciences of the …, 2017).

For data set [1], the system named is BDNF. The conditions noted are these: 0.8–5 mM; cited from earlier work.
For data set [2], the system named is HEK/APPsw cells. In words: Western blot of APP metabolites, ADAM10, BACE1, BDNF in HEK/APPsw cells. The format is cell-based, human. Particulars: 10 μM, vs DMSO. (In general: A western blot detects proteins with antibodies after separation by electrophoresis.)
The test system of data set [3] is Tg2576 AD mice. The conditions noted are these: 200 mg/kg; cited from earlier work.
In data set [4] the test system is HEK/APPsw cells. Kind of data set: CellTiter-Glo luminescent cell viability assay. Particulars: 10 μM, 48 h. The format is cell-based.
The next data set concerns aged APP/PS1 mice. Particulars: 50 mg/kg i.p.; cited from earlier work.
Data set [5] concerns BDNF. The conditions noted are these: cited from earlier work.
Data set [6] has as its system Tg2576 AD mice. Particulars: 25 mg/kg and 50 mg/kg; cited from earlier work.
A further data set has as its system APP-PS1-21 AD mice. Particulars: 2 mg/d orally, 10-mo-old mice; cited from earlier work.
The subject of a further data set is ADAM10. Particulars: via HDAC2/3 mechanism involving USF-1; cited from earlier work.

For `CC(O)CC(=O)O` (stereo not drawn) [β-hydroxybutyrate], the BDNF expression entry with BDNF [1] is reported as “increase BDNF expression”.
On to `C=C(C)[C@@H](CC=C(C)C)C[C@@]12C[C@@H](CC=C(C)C)C(C)(C)[C@@](CC=C(C)C)(C(=O)C(C(=O)c3ccc(O)c(O)c3)=C1O)C2=O` [garcinol], for which, in the data set on HEK/APPsw cells [2], the “BACE1 protein level, change (Western blot)” value is given as 54.3%; the “mature APP, change (Western blot)” value amounted to 37.9%; the “sAPPα, change (Western blot)” value is given as −33.6%.
For the compound `O=C([O-])CCCc1ccccc1.[Na+]` [sodium 4-phenylbutyrate], in the data set with Tg2576 AD mice [3], the memory entry is on record as “positive effects on memory”.
On to `O=C(/C=C/C#Cc1cccc(NS(=O)(=O)c2ccccc2)c1)NO` [oxamflatin], for which the cell viability entry in the data set on HEK/APPsw cells [4] is reported as “significantly reduce cell viability”.
`O=C(CCCCCCC(=O)Nc1ccccc1)NO` [SAHA, suberoylanilide hydroxamic acid]: the cognitive behavior result in the data set with aged APP/PS1 mice is “improvement of cognitive behavior”. In addition, the BDNF gene expression entry in the data set with BDNF [5] is given as “increase BDNF gene expression”. Besides, in the data set on Tg2576 AD mice [6], the fear conditioning behavior entry is on record as “not behaviorally” and the “synaptic plasticity (long-term potentiation)” value was “positive effects on synaptic plasticity”. In the data set with APP-PS1-21 AD mice, the Aβ plaques result is on record as “no significant differences”, the H4K12 acetylation entry is recorded as “increased H4K12 acetylation” and the spatial memory entry is “partial improvement of spatial memory”. Also, the cell viability result in the data set on HEK/APPsw cells [4] is listed as “significantly reduce cell viability”.
For the compound `CCC(=O)CCCCC[C@@H]1NC(=O)[C@H]2CCCCN2C(=O)[C@H]([C@@H](C)CC)NC(=O)[C@H](Cc2cn(OC)c3ccccc23)NC1=O` [apicidin], in the data set with ADAM10, the ADAM10 expression result is “up-regulating the expression of ADAM10”.
